This is an account of results in patent US20260159486A1, “BENZO[H]QUINAZOLINE-4-AMINE DERIVATIVES FOR THE TREATMENT OF CANCER” (Redona Therapeutics, Inc., priority 2021, published 2026).

A word on the GI50: it is the concentration at which growth is held to half of that of the control. One may read the IC50 as the concentration that inhibits the measured activity by half.

The subject of test [1] is MDA-MB-231 cells. The experiment in a line: MDA-MB-231 proliferation assay. Type of test: cell-based. Conditions: Homo sapiens, MDA-MB-231, 72 h, YO-PRO-1 Iodide readout. From the text: (§1) MDA-MB-231 and CAL-51 Proliferation Assay
(§2) Cells (MDA-MB-231 (American Type Culture Collection (ATCC), #HTB-26) or CAL-51 (Deutsche Sammlung von Mikroorganismen und Zellkulturen (DSMZ), #ACC302) as applicable) were cultivated in DMEM High Glucose (4.5 g/L) with L-Glutamine (BioConcept, cat. no. 1-26F03-I) supplemented with 1% Na-pyruvate (Sigma, cat. no. S8636), 1% Penicillin-Streptomycin (BioConcept, cat. no. 4-01F00H), and 10% FBS (Sigma, cat. no. F9665) using standard techniques. Cells were seeded in black, clear-bottom 384 well plates for tissue culture (Greiner Bio-One, cat. no. 781091) at a density of 750 cells per well in 20 μL medium and the plates were incubated overnight at 37° C. with 5% CO2 prior to treatment. Experimental compounds were serially diluted in DMSO to 200× the desired final concentrations. The solutions were then diluted 1:40 with culture medium and 5 μL aliquots were mixed into the wells containing the cells. The final concentration of DMSO was 0.5%. The plates were incubated for 72 hours and cell numbers were then measured using YO-PRO™-1 Iodide (ThermoFisher Scientific, cat. no. Y3603) essentially as recommended by the manufacturer. Briefly, a 12.5 μM solution of YO-PRO™_1 Iodide in 5× YO—PRO buffer (100 mM Na-citrate, 130 mM NaCl, pH 4) was combined with an equal volume of lysis buffer (0.6% NP-40, 30 mM EDTA, 30 mM EGTA, 0.33× YO—PRO buffer) and 12.5 μL of the mixture were dispensed into each well. The plates were incubated at room temperature in the dark for 30 minutes. Fluorescence intensity signals were then measured on a Synergy 4 reader (BioTek) using 485/20 nm and 530/25 nm filters for the excitation and emission, respectively. Relative proliferation values were calculated by normalizing the raw data using DMSO-treated cells (100% proliferation) and the signals obtained from cells that were evaluated at the time of compound addition (0% proliferation). The concentration-response data were fitted to a sigmoidal 4-parameter logistic model with the maximum constrained to 100%. GI50 values were calculated from the curves as the compound concentrations reducing proliferation to 50%.

Test [2] deals with T1, recombinant human CLK3 (Homo sapiens, UniProt P49761).
T1 construct: purchased Thermo Fisher Scientific PV3826
T1 sequence (P49761 whole entry): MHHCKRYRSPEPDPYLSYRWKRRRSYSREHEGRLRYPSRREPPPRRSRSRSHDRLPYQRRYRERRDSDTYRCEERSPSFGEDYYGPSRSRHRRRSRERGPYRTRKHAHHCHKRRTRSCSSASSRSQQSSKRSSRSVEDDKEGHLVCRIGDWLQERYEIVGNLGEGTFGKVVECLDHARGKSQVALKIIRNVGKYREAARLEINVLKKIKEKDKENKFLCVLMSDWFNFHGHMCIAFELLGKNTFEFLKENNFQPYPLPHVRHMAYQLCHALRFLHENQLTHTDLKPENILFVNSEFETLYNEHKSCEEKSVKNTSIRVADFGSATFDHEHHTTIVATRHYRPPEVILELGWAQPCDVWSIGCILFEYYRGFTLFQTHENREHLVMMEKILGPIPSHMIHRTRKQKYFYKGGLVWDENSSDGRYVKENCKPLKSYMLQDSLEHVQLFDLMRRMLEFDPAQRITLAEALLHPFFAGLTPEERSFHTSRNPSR
The experiment in a line: CLK3 kinase assay (LANCE Ultra). In kind it is biochemical. As to conditions: CLK3 0.5 nM, ATP 300 μM, 3 hours at 30° C. The procedure: CLK3 kinase activity was measured using the LANCE® Ultra technology (PerkinElmer) essentially as recommended by the supplier. Briefly, 2.5 μL of test sample at 4× the desired final concentration in 4% DMSO were dispensed into white, low volume, round bottom, 384 well plates (Corning, cat. no. 4512). 5 μL of a mixture containing recombinant human CLK3 (Thermo Fisher Scientific, cat. no. PV3826) and the labeled peptide substrate ULight™-CREBtide (PerkinElmer, cat. no. TRF0107) prepared in 1.33× kinase buffer (Thermo Fisher Scientific, cat. no. PV3189) were then added. Finally, the reactions were started by adding 2.5 μL of a 4× solution of ATP in kinase buffer. The plates were sealed with adhesive foils and incubated for 3 hours at 30° C. in the dark. The final concentrations of CLK3, ULight™-CREBtide, and ATP were 0.5 nM, 50 nM, and 300 μM, respectively. 5 μL of 40 mM EDTA were then added to terminate the reactions. The Eu-anti-phospho-CREB antibody (PerkinElmer, cat. no. TRF0200) diluted in LANCE® detection buffer (PerkinElmer, cat. no. CR97) was then added to a final concentration of 2 nM and the reactions were incubated for 1 hour at room temperature in the dark. The signals were measured using a Synergy 4 reader (BioTek) with a 320/80 nm filter for the excitation and 620/10 nm and 665/8 nm filters for the donor and acceptor emission, respectively. Relative inhibition values were calculated by normalizing the raw data using solvent control wells (0% inhibition) and wells that received no ATP (100% inhibition). IC50 values were calculated by fitting the concentration-response data to a sigmoidal 4-parameter logistic model. IC50 values for CLK3 are determined from duplicate measurements at ten different concentrations (serial 1:3 dilutions).
On the technique in general: Time-resolved FRET reads energy transfer from a long-lived donor to a nearby acceptor.

The test system of test [3] is CAL-51 cells. In words: CAL-51 proliferation assay. In kind it is cell-based. As to conditions: Homo sapiens, CAL-51, 72 h, YO-PRO-1 Iodide readout.
Excerpt: as §1, §2

The structures appear in SMILES notation. Bounds are passed on as bounds.

`COc1ccc2c(c1N(CCC#N)Cc1nnc(C(C)F)o1)CC(C)(C)c1c(N)ncnc1-2` (stereo not drawn) [Example 124, 3-[(4-amino-8-methoxy-5,5-dimethyl-6H-benzo[h]quinazolin-7-yl)-[[5-(1-fluoroethyl)-1,3,4-oxadiazol-2-yl]methyl]amino]propanenitrile]: the GI50 in test [1] and in test [3] was 100 to 2000 nM in each case. For the same compound, the IC50 in test [2] was 101 to 1000 nM.
With `CC1(C)Cc2c(ccc(O[C@H]3CC[C@H](N)CC3)c2N(CCO)CCO)-c2ncnc(N)c21` [Example 11, 2-[[4-amino-8-(trans-4-aminocyclohexoxy)-5,5-dimethyl-6H-benzo[h]quinazolin-7-yl]-(2-hydroxyethyl)amino]ethanol], the results for the 50% growth inhibitory concentration (GI50) in test [1] and in test [3] were greater than 2000 nM and 100 to 2000 nM, respectively. Further, the IC50 in test [2] is less than 30 nM.
Take `CN(CCS(C)(=O)=O)c1c(O[C@H]2CC[C@@H](N)CC2)ccc2c1CC(C)(C)c1c(N)ncnc1-2` [Example 32, 8-(cis-4-aminocyclohexoxy)-N7,5,5-trimethyl-N7-(2-methylsulfonylethyl)-6H-benzo[h]quinazoline-4,7-diamine]: the 50% growth inhibitory concentration (GI50) in test [1] and in test [3] was greater than 2000 nM throughout. Also, the IC50 in test [2] is less than 30 nM.
Regarding `CSCCN(C)c1c(O[C@H]2CC[C@@H](N)CC2)ccc2c1CC(C)(C)c1c(N)ncnc1-2` [Example 31, 8-(cis-4-aminocyclohexoxy)-N7,5,5-trimethyl-N7-(2-methylsulfanylethyl)-6H-benzo[h]quinazoline-4,7-diamine], the concentration for 50% growth inhibition (GI50) in test [1] is 100 to 2000 nM; in test [3] it was less than 100 nM. For the same compound, the concentration for half-maximal inhibition (IC50) in test [2] lay in the range of 30 to 100 nM.
The matching figures for `COc1ccc2c(c1N1CCC(C#N)C1)CC(C)(C)c1c(N)ncnc1-2` (stereo not drawn) [Example 55, 1-(4-amino-8-methoxy-5,5-dimethyl-6H-benzo[h]quinazolin-7-yl)pyrrolidine-3-carbonitrile]: less than 100 nM, less than 100 nM and 30 to 100 nM.
For the compound `CCCOc1c(O[C@H]2CC[C@H](N)CC2)ccc2c1CC(C)(C)c1c(N)ncnc1-2` [Example 19, 8-(trans-4-aminocyclohexoxy)-5,5-dimethyl-7-propoxy-6H-benzo[h]quinazolin-4-amine], the 50% growth inhibitory concentration (GI50) in test [1] and in test [3] was 100 to 2000 nM in each case. In test [2], the IC50 was 30 to 100 nM.
For `CN(c1c(O[C@H]2CC[C@H](N)CC2)ccc2c1CC(C)(C)c1c(N)ncnc1-2)S(=O)(=O)CCO` [Example 44, N-[4-amino-8-(4-trans-aminocyclohexoxy)-5,5-dimethyl-6H-benzo[h]quinazolin-7-yl]-2-hydroxy-N-methyl-ethanesulfonamide], the concentration for 50% growth inhibition (GI50) in test [1] and in test [3] was 100 to 2000 nM in each case. Besides, the half-maximal inhibitory concentration (IC50) in test [2] is less than 30 nM.
On to `CN(CCO)c1c(O[C@H]2CC[C@@H](N)CC2)ccc2c1CC1(CCCC1)c1c(N)ncnc1-2` [Example 83, 2-[[4-amino-8-(cis-4-aminocyclohexoxy)spiro[6H-benzo[h]quinazoline-5,1′-cyclopentane]-7-yl]-methyl-amino]ethanol], for which the concentration for 50% growth inhibition (GI50) in test [1] and in test [3] was less than 100 nM throughout. Besides, the concentration for half-maximal inhibition (IC50) in test [2] is less than 30 nM.
Consider `CC1(C)Cc2c(ccc(O[C@H]3CC[C@H](N)CC3)c2NC2CC2)-c2ncnc(N)c21` [Example 84, 8-(trans-4-aminocyclohexoxy)-N7-cyclopropyl-5,5-dimethyl-6H-benzo[h]quinazoline-4,7-diamine], for which the GI50 in test [1] is 100 to 2000 nM; in test [3], less than 100 nM. The 50% inhibitory concentration (IC50) in test [2] lay in the range of 30 to 100 nM.
As for `CN(CC#N)c1c(O[C@H]2CC[C@H](N)CC2)ccc2c1CC(C)(C)c1c(N)ncnc1-2` [Example 33, 2-[[4-amino-8-(trans-4-aminocyclohexoxy)-5,5-dimethyl-6H-benzo[h]quinazolin-7-yl]-methyl-amino]acetonitrile], the GI50 in test [1] is 100 to 2000 nM; in test [3], less than 100 nM. The IC50 in test [2] was less than 30 nM.
Regarding `COCCN[C@H]1CC[C@H](Oc2ccc3c(c2N(C)CCC#N)CC(C)(C)c2c(N)ncnc2-3)CC1` [Example 53, 3-[[4-amino-8-[trans-4-(2-methoxyethylamino)cyclohexoxy]-5,5-dimethyl-6H-benzo[h]quinazolin-7-yl]-methyl-amino]propanenitrile], the GI50 in test [1] and in test [3] was less than 100 nM throughout. In test [2], the IC50 was less than 30 nM.
Regarding `CC1(C)Cc2c(ccc(O[C@H]3CC[C@H](N)CC3)c2N2CCC(O)C2)-c2ncnc(N)c21` (single isomer, unassigned) [Example 15, 1-[4-amino-8-(trans-4-aminocyclohexoxy)-5,5-dimethyl-6H-benzo[h]quinazolin-7-yl]pyrrolidin-3-ol], the GI50 is 100 to 2000 nM in test [1] and less than 100 nM in test [3]. Further, in test [2], the IC50 was less than 30 nM.
On to `CN(CC#N)C(=O)c1c(O[C@H]2CC[C@H](N)CC2)ccc2c1CC(C)(C)c1c(N)ncnc1-2` [Example 94, 4-amino-8-(trans-4-aminocyclohexoxy)-N-(cyanomethyl)-N,5,5-trimethyl-6H-benzo[h]quinazoline-7-carboxamide], for which the figures for the concentration for 50% growth inhibition (GI50) in test [1] and in test [3] were greater than 2000 nM and 100 to 2000 nM, respectively. Moreover, the IC50 in test [2] fell in the range of 101 to 1000 nM.
The matching figures for `CN(C)CCOc1ccc2c(c1N(C)CCC#N)CC(C)(C)c1c(N)ncnc1-2` [Example 123, 3-[[4-amino-8-[2-(dimethylamino)ethoxy]-5,5-dimethyl-6H-benzo[h]quinazolin-7-yl]-methyl-amino]propanenitrile]: less than 100 nM, less than 100 nM and less than 30 nM.
In the same order, the values of `CN(CCC#N)c1cccc2c1CC(C)(C)c1c(N)ncnc1-2` [Example 109, 3-[(4-amino-5,5-dimethyl-6H-benzo[h]quinazolin-7-yl)-methyl-amino]propanenitrile] are 100 to 2000 nM, less than 100 nM and 30 to 100 nM.
Regarding `CC1(C)Cc2c(ccc(O[C@H]3CC[C@H](N)CC3)c2OCCC#N)-c2ncnc(N)c21` [Example 71, 3-[[4-amino-8-(trans-4-aminocyclohexoxy)-5,5-dimethyl-6H-benzo[h]quinazolin-7-yl]oxy]propanenitrile], the GI50 in test [1] is 100 to 2000 nM; in test [3] it was less than 100 nM. The concentration for half-maximal inhibition (IC50) in test [2] is less than 30 nM.
Turning to `CNC(=O)CN(C)c1c(O[C@H]2CC[C@@H](N)CC2)ccc2c1CC(C)(C)c1c(N)ncnc1-2` [Example 26, 2-[[4-amino-8-(cis-4-aminocyclohexoxy)-5,5-dimethyl-6H-benzo[h]quinazolin-7-yl]-methyl-amino]-N-methyl-acetamide], the GI50 in test [1] and in test [3] was greater than 2000 nM throughout. Moreover, the half-inhibitory concentration (IC50) in test [2] was in the range of 101 to 1000 nM.
In the case of `CN(CCOC(F)(F)F)c1c(O[C@H]2CC[C@H](N)CC2)ccc2c1CC(C)(C)c1c(N)ncnc1-2` [Example 47, 8-(trans-4-aminocyclohexoxy)-N7,5,5-trimethyl-N7-[2-(trifluoromethoxy)ethyl]-6H-benzo[h]quinazoline-4,7-diamine], the GI50 in test [1] was 100 to 2000 nM; in test [3], less than 100 nM. For the same compound, the IC50 in test [2] lay in the range of 30 to 100 nM.
